Results from paper PMC9316017, “Succinimido–Ferrocidiphenol Complexed with Cyclodextrins Inhibits Glioblastoma Tumor Growth In Vitro and In Vivo without Noticeable Adverse Toxicity” (Molecules, 2022).
Like-named read-outs stand apart in the source and are kept apart here.

Tests used:
[1] = Dissolution of the lyophilized complex in water; type: physicochemical; details: 25 °C
Experimental: To investigate the dissolution, an amount (5 mg) of the lyophilized SuccFerr:RAMEßCD complex was suspended in water. The suspension was incubated at 25 °C in a shaking-bath (200 strokes/min, Heito, France). One-milliliter aliquots were taken at various time intervals up to 24 h and centrifuged× 7200g, 5 min, (Denver Instruments, Bohemia, NY, USA). Each supernatant was analyzed by HPLC to assess the drug contents. The results are presented as mean ± SD of triplicate experiments. A dialysis was also realized under magnetic stirring with a 14,000 Da cut-off bag, containing 2 mL of an aqueous solution of 5 mg of SuccFerr:RAMEßCD and 498 mL of distilled water. Aliquots were taken and analyzed as previously described.

[2] = tested on: fifteen molecularly diverse glioblastoma patient-derived cell lines (PDCLs); design: method as in PMID 34638742; details: cited from earlier work

- dissolution in distilled water [1]: cannot be dissolved and was undetectable
Structure (SMILES): O=C1CCC(=O)N1CCCC(=C(c1ccc(O)cc1)c1ccc(O)cc1)[c-]1cccc1.[Fe+2].c1cc[cH-]c1 [SuccFerr, N-[4-ferrocenyl,5-5-bis (4-hydroxyphenyl)-pent-4-enyl]-succinimide]
- IC50 ratio (highest/lowest) [2]: ≈ 3000
- IC50 ([2]; read-out: highest IC50 across the PDCLs): ~30 µM
- IC50 ([2]; read-out: lowest IC50 across the PDCLs): 0.01 µM
